Test results from patent US11408016B2, “Amino acid dehydrogenase mutant and application in synthesis of L-glufosinate-ammonium thereof” (ZHEJIANG UNIVERSITY OF TECHNOLOGY, priority 2018, dated 2022).

How the values were obtained:
[1] = molecular target: T1, Pseudomonas monteilii amino acid dehydrogenase DyGDH (WP_060477601.1), original pDyGDH, SEQ ID No. 2 (Pseudomonas promysalinigenes, UniProt A0ABY6AJQ3); assay: Kinetic parameter determination, original pDyGDH; assay type: biochemical; conditions: pH 7.4, 35° C.
T1 sequence (A0ABY6AJQ3 1-446): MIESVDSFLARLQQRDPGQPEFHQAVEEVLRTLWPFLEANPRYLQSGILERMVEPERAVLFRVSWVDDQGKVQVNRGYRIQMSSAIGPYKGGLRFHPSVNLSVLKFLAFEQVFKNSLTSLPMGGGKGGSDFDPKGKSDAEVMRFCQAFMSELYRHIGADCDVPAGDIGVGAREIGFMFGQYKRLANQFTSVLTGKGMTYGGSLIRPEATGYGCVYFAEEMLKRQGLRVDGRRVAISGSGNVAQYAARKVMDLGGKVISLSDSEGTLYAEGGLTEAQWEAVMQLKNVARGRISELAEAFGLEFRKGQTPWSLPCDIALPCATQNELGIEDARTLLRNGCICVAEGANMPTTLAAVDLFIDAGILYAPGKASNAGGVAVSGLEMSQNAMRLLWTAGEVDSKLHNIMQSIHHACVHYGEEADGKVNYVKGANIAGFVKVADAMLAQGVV
Procedure: The gene of the amino acid dehydrogenase cloned from Pseudomonas monteilii WP_060477601.1 (the nucleotide sequence is shown in SEQ ID No. 1, and the amino acid sequence is shown in SEQ ID No. 2) was used to construct the expression vector pETDEut-dygdh, then the obtained vector was transformed into E. coli to obtain the original strain E. coli BL21(DE3)/pETDEut-dygdh. […]
(§1) The reaction system was 500 μL, the pure enzyme solution collected in Example 4 was diluted 10 times with pH 7.4, 100 mM phosphate buffer, then 100 μL of the resulting solution was sampled, added with the substrate and exogenous coenzyme NADPH, pH 7.4, 100 mM phosphate buffer was taken as a reaction medium, after reacting at 35° C. and 600 rpm for 10 min, the concentration of L-glufosinate-ammonium in the reacting solution was determined by HPLC (according to Example 4).
(§2) According to the sequential mechanism of amino acid dehydrogenase's catalytic reaction, vmax, Km^A, Km^B can be calculated by dual-reciprocal graph, the results were shown in Table 4.

[2] = molecular target: Pseudomonas monteilii amino acid dehydrogenase DyGDH variant pDyGDH-F95I-A108T-R172P-R303H (F95I/A108T/R172P/R303H of SEQ ID No. 2) (Pseudomonas promysalinigenes, UniProt A0ABY6AJQ3, A108T/F95I/R172P/R303H); assay: Kinetic parameter determination, pDyGDH-F95I-A108T-R172P-R303H; assay type: biochemical
Procedure: The gene of the amino acid dehydrogenase cloned from Pseudomonas monteilii WP_060477601.1 (the nucleotide sequence is shown in SEQ ID No. 1, and the amino acid sequence is shown in SEQ ID No. 2) was used to construct the expression vector pETDEut-dygdh, then the obtained vector was transformed into E. coli to obtain the original strain E. coli BL21(DE3)/pETDEut-dygdh.
The mutant proteins were purified by Ni-NTA column (1.6×10 cm, Bio-Rad, the USA), and the specific operation was carried out as follows: (1) a Ni column was equilibrated with 5 column volumes of binding buffer (pH 8.0, 50 mM sodium phosphate buffer containing 0.3 M NaCl) until the baseline was steady; (2) the sample was loaded with a flow rate of 1 mL/min, the amount of the loading sample was 25-40 mg/mL calculated by the volume of the column, thereby attaching the target protein to the Ni column; (3) the column was washed with 6 column volumes of buffer A (pH 8.0, 50 mM sodium phosphate buffer containing 0.3 M NaCl and 30 mM imidazole) at a flow rate of 1 mL/min until the baseline was steady; (4) the column was washed with buffer B (pH 8.0, 50 mM sodium phosphate buffer containing 0.3 M NaCl and 500 mM imidazole) at a flow rate of 1 mL/min, the target protein was collected and dialyzed overnight in a pH 7.5, 20 mM phosphate buffer, thereby obtaining the pure enzyme; and (5) the Ni column was washed with 5 column volumes of binding buffer (pH 8.0, 50 mM sodium phosphate buffer containing 0.3 M NaCl) until the baseline was steady, and the Ni column was stored in 5 column volumes of ultrapure water containing 20% ethanol.
Kinetic parameters of the amino acid hydrogenase and its mutants were examined, 2-carbonyl-4-(hydroxymethylphosphinyl)-butyric acid was taken as substrate, the concentration was set as 2-10 mM (2, 4, 6, 8, 10 mM), the concentration of exogenous coenzyme NADPH was set as 1-5 mM (1, 2, 3, 4, 5 mM), 100 uL of pure enzyme solution was added (according to Example 4).
as §1, §2

Row | SMILES | kcat/Km^A (NADPH) [1] [M⁻¹ s⁻¹] | kcat/Km^A (NADPH) ([2]; pH 7.4, 35° C.) [M⁻¹ s⁻¹] | catalytic efficiency on coenzyme NADPH, times higher than that of the original enzyme ([2]; versus original pDyGDH) [times] | kcat/Km^B (2-carbonyl-4-(hydroxymethylphosphinyl)-butyric acid) [1] [M⁻¹ s⁻¹] | kcat/Km^B (2-carbonyl-4-(hydroxymethylphosphinyl)-butyric acid) ([2]; pH 7.4, 35° C.) [M⁻¹ s⁻¹] | catalytic efficiency kcat/Km^B on 2-carbonyl-4-(hydroxymethylphosphinyl)-butyric acid, times higher than that of the original enzyme ([2]; versus original pDyGDH) [times]
1 | NC(=O)C1=CN([C@@H]2O[C@H](COP(=O)(O)OP(=O)(O)OC[C@H]3O[C@@H](n4cnc5c(N)ncnc54)[C@H](OP(=O)(O)O)[C@@H]3O)[C@@H](O)[C@H]2O)C=CC1 [NADPH] | 385670 | 1.43823e+07 | 37.3 |  |  | 
2 | CP(=O)(O)CCC(=O)C(=O)O [2-carbonyl-4-(hydroxymethylphosphinyl)-butyric acid] |  |  |  | 12410 | 363100 | 29.3
